Laboratory results taken from patent publication US9868772B2 (INDIANA UNIVERSITY RESEARCH AND TECHNOLOGY CORPORATION, priority 2012, dated 2018).
Numbered stars: 1 amine (or outer) side, 2 acyl side, 3 side chain; on linkers, the order of the positions; unused ones are H or OH. Square brackets hold non-standard residues; d marks the D form. Side chains are listed from the residue outwards. Peptide text beside a SMILES is read from it. * marks the point of attachment. γGlu = O=C(O)[C@H](CCC(=O)[*:2])N[*:1]; Palmitoyl = CCCCCCCCCCCCCCCC(=O)*; 2Thi = N[C@@H](Cc1cccs1)C(=O)O

Experiments:
Assay in all cases: cAMP induction, firefly luciferase reporter assay in HEK293 cells co-transfected with receptor
Format in all cases: cell-based
GLP-1 receptor = target: T1, GLP-1 receptor (Homo sapiens, UniProt P43220)
T1 construct: expressed in transfected cells; host or cells: HEK293
T1 sequence (P43220 24-463): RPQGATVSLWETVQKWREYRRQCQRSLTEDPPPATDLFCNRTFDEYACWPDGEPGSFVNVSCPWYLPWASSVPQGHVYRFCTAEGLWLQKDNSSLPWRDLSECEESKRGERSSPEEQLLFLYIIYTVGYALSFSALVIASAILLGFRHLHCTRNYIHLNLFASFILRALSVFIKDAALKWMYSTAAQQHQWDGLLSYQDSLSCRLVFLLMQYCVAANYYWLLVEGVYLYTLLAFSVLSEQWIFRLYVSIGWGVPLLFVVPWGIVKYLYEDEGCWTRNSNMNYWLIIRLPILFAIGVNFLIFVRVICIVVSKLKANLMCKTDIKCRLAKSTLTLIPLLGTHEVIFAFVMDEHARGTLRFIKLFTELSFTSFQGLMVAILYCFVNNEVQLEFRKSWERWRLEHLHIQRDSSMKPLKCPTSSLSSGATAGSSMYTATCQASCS
Method: (§1) The ability of glucagon analogs to induce cAMP was measured in a firefly luciferase-based reporter assay. […] At the end of the incubation 100 microliters of LucLite luminescence substrate reagent (Perkin-Elmer, Wellesley, Mass.) were added to each well. […] Effective 50% concentrations were calculated by using Origin software (OriginLab, Northampton, Mass.

GIP receptor = target: T2, GIP receptor (Homo sapiens, UniProt P48546)
T2 construct: expressed in transfected cells; host or cells: HEK293
T2 sequence (P48546 22-466): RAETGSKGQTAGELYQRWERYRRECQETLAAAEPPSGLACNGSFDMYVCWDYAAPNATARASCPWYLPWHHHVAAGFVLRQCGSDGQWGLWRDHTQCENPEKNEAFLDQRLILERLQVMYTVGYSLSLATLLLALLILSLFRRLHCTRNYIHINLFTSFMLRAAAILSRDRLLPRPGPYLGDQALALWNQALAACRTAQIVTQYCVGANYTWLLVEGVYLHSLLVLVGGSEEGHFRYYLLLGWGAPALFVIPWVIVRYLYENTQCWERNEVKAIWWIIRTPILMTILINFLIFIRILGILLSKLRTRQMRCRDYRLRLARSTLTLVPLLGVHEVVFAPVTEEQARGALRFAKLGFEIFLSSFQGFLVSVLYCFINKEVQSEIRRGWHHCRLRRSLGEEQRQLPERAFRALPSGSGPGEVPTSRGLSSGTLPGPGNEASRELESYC
Method: as §1

glucagon receptor = target: T3, glucagon receptor (Homo sapiens, UniProt P47871)
T3 construct: expressed in transfected cells; host or cells: HEK293
T3 sequence (P47871 26-477): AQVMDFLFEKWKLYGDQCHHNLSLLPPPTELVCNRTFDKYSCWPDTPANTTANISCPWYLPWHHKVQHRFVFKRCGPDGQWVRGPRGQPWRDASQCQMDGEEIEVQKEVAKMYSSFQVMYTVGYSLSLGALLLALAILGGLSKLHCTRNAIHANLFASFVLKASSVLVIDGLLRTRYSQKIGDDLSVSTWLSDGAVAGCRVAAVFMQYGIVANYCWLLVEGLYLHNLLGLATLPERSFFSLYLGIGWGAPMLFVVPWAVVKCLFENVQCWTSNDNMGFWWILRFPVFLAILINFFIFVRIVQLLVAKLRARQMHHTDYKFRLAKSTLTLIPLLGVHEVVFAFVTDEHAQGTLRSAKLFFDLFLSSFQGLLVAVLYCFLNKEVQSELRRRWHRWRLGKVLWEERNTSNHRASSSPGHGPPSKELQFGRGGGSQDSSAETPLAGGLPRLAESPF
Method: as §1

[1] = Table 1, analogs of SEQ ID NO: 37
[2] = Table 3, analogs of SEQ ID NO: 12

| SMILES | EC50 (GLP-1 receptor; [1]) [nM] | EC50 (GIP receptor; [1]) [nM] | EC50 (glucagon receptor; [1]) [nM] | EC50 (GLP-1 receptor; [2]) [nM] | EC50 (GIP receptor; [2]) [nM] | EC50 (glucagon receptor; [2]) [nM] |
| --- | --- | --- | --- | --- | --- | --- |
| CCCCCCCCCCCCCCCC(=O)N[C@@H](CCC(=O)NCCCC[C@H](NC(=O)[C@H](CC(=O)O)NC(=O)[C@H](CO)NC(=O)[C@@H](NC(=O)[C@H](Cc1ccccc1)NC(=O)[C@@H](NC(=O)CNC(=O)[C@H](CCC(N)=O)NC(=O)[C@H](C)NC(=O)[C@@H](Cc1cccs1)NC(C)=O)[C@@H](C)O)[C@@H](C)O)C(=O)N[C@@H](CO)C(=O)N[C@@H](CCCCN)C(=O)N[C@@H](Cc1ccc(O)cc1)C(=O)N[C@@H](CC(C)C)C(=O)N[C@@H](CC(=O)O)C(=O)N[C@@H](CCC(=O)O)C(=O)N[C@@H](CCCNC(=N)N)C(=O)N[C@@H](C)C(=O)N[C@@H](C)C(=O)N[C@@H](CCC(N)=O)C(=O)N[C@@H](CC(=O)O)C(=O)N[C@@H](Cc1ccccc1)C(=O)N[C@H](C(=O)N[C@@H](CCC(N)=O)C(=O)N[C@@H](Cc1c[nH]c2ccccc12)C(=O)N[C@@H](CC(C)C)C(=O)N[C@@H](CC(C)C)C(=O)N[C@@H](CCC(=O)O)C(=O)NCC(=O)NCC(=O)N1CCC[C@H]1C(=O)N[C@@H](CO)C(=O)N[C@@H](CO)C(=O)NCC(=O)N[C@@H](C)C(=O)N1CCC[C@H]1C(=O)N1CCC[C@H]1C(=O)N1CCC[C@H]1C(=O)N[C@@H](CO)C(N)=O)C(C)C)C(=O)O [compound 17] | 0.005 | 0.011 | 0.008 | – | – | – |
| CCCCCCCCCCCCCCCC(=O)N[C@@H](CCC(=O)NCCCC[C@H](NC(=O)[C@H](CC(=O)O)NC(=O)[C@H](CO)NC(=O)[C@@H](NC(=O)[C@H](Cc1ccccc1)NC(=O)[C@@H](NC(=O)CNC(=O)[C@H](CCC(N)=O)NC(=O)CNC(=O)[C@@H](N)Cc1cccs1)[C@@H](C)O)[C@@H](C)O)C(=O)N[C@@H](CO)C(=O)N[C@@H](CCCCN)C(=O)N[C@@H](Cc1ccc(O)cc1)C(=O)N[C@@H](CC(C)C)C(=O)N[C@@H](CC(=O)O)C(=O)N[C@@H](CCC(=O)O)C(=O)N[C@@H](CCCNC(=N)N)C(=O)N[C@@H](C)C(=O)N[C@@H](C)C(=O)N[C@@H](CCC(N)=O)C(=O)N[C@@H](CC(=O)O)C(=O)N[C@@H](Cc1ccccc1)C(=O)N[C@H](C(=O)N[C@@H](CCC(N)=O)C(=O)N[C@@H](Cc1c[nH]c2ccccc12)C(=O)N[C@@H](CC(C)C)C(=O)N[C@@H](CC(C)C)C(=O)N[C@@H](CCC(=O)O)C(=O)NCC(=O)NCC(=O)N1CCC[C@H]1C(=O)N[C@@H](CO)C(=O)N[C@@H](CO)C(=O)NCC(=O)N[C@@H](C)C(=O)N1CCC[C@H]1C(=O)N1CCC[C@H]1C(=O)N1CCC[C@H]1C(=O)N[C@@H](CO)C(N)=O)C(C)C)C(=O)O [compound 29] (H-[2Thi]GQGTFTSDK([γGlu-Palmitoyl])SKYLDERAAQDFVQWLLEGGPSSGAPPPS-NH2; N-terminus assumed) | 0.007 | 0.095 | 0.038 | – | – | – |
| CCCCCCCCCCCCCCCC(=O)N[C@@H](CCC(=O)NCCCC[C@H](NC(=O)[C@H](CC(=O)O)NC(=O)[C@H](CO)NC(=O)[C@@H](NC(=O)[C@H](Cc1ccccc1)NC(=O)[C@@H](NC(=O)CNC(=O)[C@H](CCC(N)=O)NC(=O)[C@H](C)NC(=O)[C@@H](Cc1ccc(O)cc1)NC(C)=O)[C@@H](C)O)[C@@H](C)O)C(=O)N[C@@H](CO)C(=O)N[C@@H](CCCCN)C(=O)N[C@@H](Cc1ccc(O)cc1)C(=O)N[C@@H](CC(C)C)C(=O)N[C@@H](CC(=O)O)C(=O)N[C@@H](CCC(=O)O)C(=O)N[C@@H](CCCNC(=N)N)C(=O)N[C@@H](C)C(=O)N[C@@H](C)C(=O)N[C@@H](CCC(N)=O)C(=O)N[C@@H](CC(=O)O)C(=O)N[C@@H](Cc1ccccc1)C(=O)N[C@H](C(=O)N[C@@H](CCC(N)=O)C(=O)N[C@@H](Cc1c[nH]c2ccccc12)C(=O)N[C@@H](CC(C)C)C(=O)N[C@@H](CC(C)C)C(=O)N[C@@H](CC(=O)O)C(=O)N[C@@H](CC(C)C)C(=O)NCC(=O)N1CCC[C@H]1C(=O)N[C@@H](CO)C(=O)N[C@@H](CO)C(=O)NCC(=O)N[C@@H](C)C(=O)N1CCC[C@H]1C(=O)N1CCC[C@H]1C(=O)N1CCC[C@H]1C(=O)N[C@@H](CO)C(N)=O)C(C)C)C(=O)O [compound 153] (Ac-[dY]AQGTFTSDK([γGlu-Palmitoyl])SKYLDERAAQDFVQWLLDLGPSSGAPPPS-NH2) | – | – | – | 0.017 | 0.018 | 0.021 |
